According to publication PMC11621054, “Biological evaluation of semi-synthetic isoindolinone isomers produced by Stachybotrys chartarum” (Frontiers in Fungal Biology, 2024):
“Also recorded” adds a separate entry of the source.

Legend:
HepG2 = experiment: Micronucleus assay (genotoxicity, OECD 487); type: cell-based, human; details: 1 at 25 µM, 3a at 5 and 25 µM
Procedure: The genotoxic effects of the AcAc ( 1 ) and its semi-synthetic products ( 2a , 2b; 3a , 3b ) were evaluated with the micronucleus assay, performed based on OECD Test guideline 487. HepG2 were cultivated in accordance with the descriptions of Kalinina et al. ([Kalinina et al., 2018]). The cells were seeded with 300,000 cells/slide on Polysine® slides (Epredia™ Polysine™ Microscopic Adhesion Slides, FisherScientific) in quadriPERM® culture dishes (Sarstedt, Nümbrecht, Germany) and cultivated for 24 h. Then, they were incubated with the test compounds (0.5-25 µM) in serum free DMEM for 5 h. As positive control 0.6 µM mitomycin C (MMC) was used. All tested compounds were dissolved in DMSO. Cells were washed with sterile phosphate-buffered saline (PBS) and incubated with 4 µg/mL cytokinesis inhibitor cytochalasin B (Santa Cruz Biotechnology, USA) in DMEM for 19 h. Slides were washed with PBS and cold MeOH. Afterwards, cells were fixated with MeOH at -20 °C for 1 h. […] Subsequently, cells were evaluated using a fluorescence microscope (Zeiss Axio Imager 2, Oberkochen, Germany) with filters of 365/445 nm and 546/575 nm. The micronucleus rate was evaluated by counting 1,000 binucleate cells and binucleate cells with micronuclei on each slide and calculating the proportion of binucleate cells containing one or more micronuclei. […]

[1] = Hepatic phase I metabolism (oxidation), horse microsomes; type: in vitro ADME; details: 10 µM, 90 min
Procedure: (§1) Liver microsomes and cytosol were obtained for two organisms, horse and human. Fresh horse liver was purchased locally cut to pieces of ca. 50 g each and frozen in liquid nitrogen. Until further usage, the liver was stored at -80 °C. The preparation of microsomes and cytosol was carried out according to Balk et al. ([Balk et al., 1984]), and the protein content was determined by Bradford assay with bovine serum albumin as a reference ([Bradford, 1976]). Human liver microsomes and cytosol (150 Donors Ultrapool™) were provided by Corning, Inc. (Corning, New York, NY, USA). Besides assay-specific positive controls, all assays included stability controls, moreover, matrix influences were considered. For oxidation, additional non-oxidation controls were included. Each experiment was performed in duplicate. All stated concentrations are final concentration values. The test compounds (acetoxystachybotrylactam acetate-tryptophan 2a, 2b and acetoxystachybotrylactam acetate-tryptamine 3a, 3b ) were extended by the most biologically active derivative previously characterized by our group (acetoxystachybotrylactam acetate-agmatine 4 ) ([Steinert et al., 2022]).
(§2) The phase I metabolism was investigated utilizing a NADPH- regenerating system. […] After centrifugation (4 °C, 10 min, 15,000 rpm), 150 µL of supernatant was diluted with 850 µL H2O, which was subsequently analyzed by HPLC-qToF-HRMS. […]

[2] = tested on: Human liver carcinoma cells (HepG2, HB-8065); parameters: method as in Steinert et al., 2022; details: 50 µM, 24 h; data of Figure 8 for compound 1 from previous investigation; ref Steinert et al., 2022; cited from earlier work
[3] = Hepatic phase II glucuronidation, horse microsomes; type: in vitro ADME; details: 50 µM, 4 h; for glucuronidation: conversion and formation of glucuronides, in words: horse microsomes
Procedure: as §1
(§3) For phase II metabolism, potential sulfation and glucuronidation were investigated. For sulfation, the reaction mixture was pipetted as follows: first, ultrapure water was added and mixed with a 1 mM DTT solution (contains DTT, 100 mM phosphate buffer, 100 µM ascorbic acid, pH 7.4). Then, PAPS (100 µM) and the substance of interest (50 µM) were added, which was concluded by the addition of horse/human cytosol (10 mg protein/mL). For glucuronidation, first, ultrapure H2O, phosphate buffer (50 mM) and MgCl2 (5 mM) were added to the reaction vessel, followed by addition of the investigated substance (50 µM), UDPGA (5 µM), and horse/human microsomes (1 mg protein/mL), respectively. For both assays, the final volume was 100 µL which was subsequently incubated for 4 h at 37 °C in darkness. […] After centrifugation (4 °C, 10 min, 15,000 rpm), 150 µL of supernatant was diluted with 850 µL H2O, which was subsequently analyzed by HPLC-qToF-HRMS. […]

[4] = Hepatic phase I metabolism (oxidation), human microsomes; type: in vitro ADME; details: 10 µM, 90 min
Procedure: as §1, §2

[5] = Hepatic phase II glucuronidation, human microsomes; type: in vitro ADME; details: 50 µM, 4 h; for glucuronidation: conversion and formation of glucuronides, in words: human microsomes
Procedure: as §1
For phase II metabolism, potential sulfation and glucuronidation were investigated. For sulfation, the reaction mixture was pipetted as follows: first, ultrapure water was added and mixed with a 1 mM DTT solution (contains DTT, 100 mM phosphate buffer, 100 µM ascorbic acid, pH 7.4). Then, PAPS (100 µM) and the substance of interest (50 µM) were added, which was concluded by the addition of horse/human cytosol (10 mg protein/mL). For glucuronidation, first, ultrapure H2O, phosphate buffer (50 mM) and MgCl2 (5 mM) were added to the reaction vessel, followed by addition of the investigated substance (50 µM), UDPGA (5 µM), and horse/human microsomes (1 mg protein/mL), respectively. For both assays, the final volume was 100 µL which was subsequently incubated for 4 h at 37 °C in darkness. Quenching and protein precipitation was achieved by adding 200 µL of cold MeCN (-20 °C). After centrifugation (4 °C, 10 min, 15,000 rpm), 150 µL of supernatant was diluted with 850 µL H2O, which was subsequently analyzed by HPLC-qToF-HRMS. For both experiments, 50 µM 7-hydroxycumarin served as positive control.
Chromatographic separation and mass spectrometric detection were identical to the parameters already described for the fragmentation experiments for phase I and phase II glucuronidation metabolism. For sulfation, the HPLC-qToF-HRMS was operated in negative ionization mode at -4.5 kV and otherwise identical source parameters as previously described. […]

[6] = Hepatic phase II sulfation, human cytosol; type: in vitro ADME; details: 50 µM, 4 h
Procedure: as §1, §3

[7] = Hepatic phase II sulfation, horse cytosol; type: in vitro ADME; details: 50 µM, 4 h
Procedure: as §1, §3

human factor XIa = biological target: T1, human factor XIa (Homo sapiens, UniProt P03951); experiment: Serine protease inhibition assay, fluorogenic substrate, FXIa; type: biochemical; details: endpoint RFU after 1 h, 25 °C
T1 construct: human factor XIa, HFXIA, >95% purity; Molecular Innovations; purchased Molecular Innovations HFXIA
Procedure: (§4) The inhibitory activity of further semi-synthesized compounds toward the coagulation factor XIIa, thrombin, FXIa, FXa, and trypsin was measured by quantifying the hydrolysis rate of the fluorogenic substrates as reported previously ([Korff et al., 2020]; [Platte et al., 2021]; [Imberg et al., 2022]). Briefly, the activity was tested in buffer (10 mM Tris-Cl, 150 mM NaCl, 10 mM MgCl2·6 H2O, 1 mM CaCl2·2 H2O, 0.1% w/v BSA, 0.01% v/v Triton-X100, pH 7.4) utilizing clear flat-bottom, black polystyrene 96-well plates. The enzymes (human β-FXIIa, HFXIIAB, > 95% purity; Molecular Innovations, 2.5 nM – final concentration; human α-thrombin (active) protein, ABIN2127880, > 95% purity; antibodies-online, 0.25 nM – final concentration; human Factor Xa, HFXA, > 95% purity; Molecular Innovations, 2.5 nM – final concentration; human factor XIa, HFXIA, >95% purity; Molecular Innovations, 0.5 nM – final concentration porcine trypsin; Merck, 3.5 nM – final concentration) and the fluorogenic substrates for FXIIa: Boc-Gln-Gly-Arg-AMC (Pepta Nova, 25 µM – final concentration, Km = 167 µM); for thrombin: Boc Val Pro Arg AMC (Pepta Nova, 25 µM – final concentration, Km = 18 µM); for FXa: Boc-Ile-Glu-Gly-Arg-AMC (Pepta Nova, 25 µM – final concentration); for FXIa: Boc-Glu-(OBzl)-Ala-Arg-AMC (Pepta Nova, 25 µM – final concentration); for trypsin: Z-Gly-Gly-Arg-AMC (Sigma-Aldrich, 25 µM – final concentration) were used. The fluorogenic substrate solution was added into the wells followed by the addition of test-compounds solution, and the reaction was triggered by addition of the enzyme solution (final testing volume – 150 µL). In case of blank (substrate + buffer) and control (substrate + enzyme) wells, DMSO was added instead of the test-compounds’ solution. Fluorescence intensity was measured with Microplate Reader Mithras LB 940 (Berthold Technologies, excitation at 355 nm, emission at 460 nm) for a period of 1 h with a read every minute. The reactions were performed at 25 °C. To derive % of enzyme inhibition, endpoint RFU (single fluorescence reading after 1 h) was used. As a positive controls for thrombin, FXa, FXIIa, FXIa, and trypsin were used dabigatran (500 nM), rivaroxaban (500 nM), compound “39b” (500 nM) ([Platte et al., 2021]), Inhibitor 5t (8 µM) ([Imberg et al., 2022]), Inhibitor E (2 µM) ([Erbacher et al., 2024]), respectively. Semi-synthesized compounds were screened at 200 µM.

[8] = tested on: Human liver carcinoma cells (HepG2, HB-8065); details: HepG2, 24 h incubation, resazurin
human β-FXIIa = biological target: T2, human β-FXIIa (Homo sapiens, UniProt P00748); experiment: Serine protease inhibition assay, fluorogenic substrate, FXIIa; type: biochemical; details: endpoint RFU after 1 h, 25 °C; for inhibition of FXIIa: 200 µM
T2 construct: human β-FXIIa, HFXIIAB, > 95% purity; Molecular Innovations; purchased Molecular Innovations HFXIIAB
Procedure: as §4

porcine trypsin = biological target: T3, porcine trypsin (Sus scrofa, UniProt P00761); experiment: Serine protease inhibition assay, fluorogenic substrate, trypsin; type: biochemical; details: 200 µM, endpoint RFU after 1 h, 25 °C
T3 construct: porcine trypsin; Merck, 3.5 nM – final concentration; purchased Merck
Procedure: (§5) The inhibitory activity of further semi-synthesized compounds toward the coagulation factor XIIa, thrombin, FXIa, FXa, and trypsin was measured by quantifying the hydrolysis rate of the fluorogenic substrates as reported previously ([Korff et al., 2020]; [Platte et al., 2021]; [Imberg et al., 2022]). Briefly, the activity was tested in buffer (10 mM Tris-Cl, 150 mM NaCl, 10 mM MgCl2·6 H2O, 1 mM CaCl2·2 H2O, 0.1% w/v BSA, 0.01% v/v Triton-X100, pH 7.4) utilizing clear flat-bottom, black polystyrene 96-well plates. […] Fluorescence intensity was measured with Microplate Reader Mithras LB 940 (Berthold Technologies, excitation at 355 nm, emission at 460 nm) for a period of 1 h with a read every minute. […] To derive % of enzyme inhibition, endpoint RFU (single fluorescence reading after 1 h) was used. […]

human Factor Xa = biological target: T4, human Factor Xa (Homo sapiens, UniProt P00742); experiment: Serine protease inhibition assay, fluorogenic substrate, FXa; type: biochemical; details: 200 µM, endpoint RFU after 1 h, 25 °C
T4 construct: human Factor Xa, HFXA, > 95% purity; Molecular Innovations; purchased Molecular Innovations HFXA
Procedure: as §5

[9] = Precipitation in cell culture medium; type: physicochemical; details: cell culture medium (DMEM), 0.5% DMSO
[10] = tested on: lung adenocarcinoma cells (A549, CCL-185); details: A549, 24 h incubation, resazurin

T2 sequence (P00748 373-615 limits assumed, other chains not shown): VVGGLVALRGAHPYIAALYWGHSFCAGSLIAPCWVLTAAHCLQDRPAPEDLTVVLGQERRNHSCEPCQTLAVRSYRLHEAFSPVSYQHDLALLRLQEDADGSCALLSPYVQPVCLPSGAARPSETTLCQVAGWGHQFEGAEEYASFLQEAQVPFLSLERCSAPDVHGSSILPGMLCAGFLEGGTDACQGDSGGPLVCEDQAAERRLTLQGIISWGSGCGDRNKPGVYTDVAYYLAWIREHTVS
T1 sequence (P03951 388-625 limits assumed): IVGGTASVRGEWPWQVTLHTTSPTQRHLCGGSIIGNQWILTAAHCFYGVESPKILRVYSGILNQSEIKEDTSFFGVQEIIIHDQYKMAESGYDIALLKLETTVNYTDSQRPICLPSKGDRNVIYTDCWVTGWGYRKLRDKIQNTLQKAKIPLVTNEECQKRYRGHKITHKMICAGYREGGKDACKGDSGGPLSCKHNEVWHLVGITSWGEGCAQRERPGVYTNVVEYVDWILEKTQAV
T1 sequence (P03951 19-387 partner limits assumed): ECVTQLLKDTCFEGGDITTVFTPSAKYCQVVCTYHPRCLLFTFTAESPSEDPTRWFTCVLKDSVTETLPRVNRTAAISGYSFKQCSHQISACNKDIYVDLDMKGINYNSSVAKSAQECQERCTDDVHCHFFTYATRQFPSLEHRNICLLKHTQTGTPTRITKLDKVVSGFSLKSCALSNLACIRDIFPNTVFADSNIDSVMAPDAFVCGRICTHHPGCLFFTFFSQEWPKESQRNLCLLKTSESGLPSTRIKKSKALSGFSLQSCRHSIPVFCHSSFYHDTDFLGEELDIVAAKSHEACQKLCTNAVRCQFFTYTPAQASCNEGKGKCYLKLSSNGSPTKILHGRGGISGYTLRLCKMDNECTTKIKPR
T4 sequence (P00742 235-488 limits assumed): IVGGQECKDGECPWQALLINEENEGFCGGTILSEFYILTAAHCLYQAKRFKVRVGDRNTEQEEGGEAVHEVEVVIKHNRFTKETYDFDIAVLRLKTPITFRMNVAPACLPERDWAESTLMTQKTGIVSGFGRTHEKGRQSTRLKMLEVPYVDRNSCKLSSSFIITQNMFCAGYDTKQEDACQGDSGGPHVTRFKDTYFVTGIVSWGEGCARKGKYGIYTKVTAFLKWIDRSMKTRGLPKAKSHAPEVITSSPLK
T4 sequence (P00742 41-179 partner limits assumed): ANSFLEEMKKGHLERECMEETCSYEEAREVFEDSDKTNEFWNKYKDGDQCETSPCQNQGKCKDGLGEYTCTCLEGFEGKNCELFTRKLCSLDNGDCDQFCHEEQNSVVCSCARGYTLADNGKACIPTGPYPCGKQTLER
T3 sequence (P00761 9-231): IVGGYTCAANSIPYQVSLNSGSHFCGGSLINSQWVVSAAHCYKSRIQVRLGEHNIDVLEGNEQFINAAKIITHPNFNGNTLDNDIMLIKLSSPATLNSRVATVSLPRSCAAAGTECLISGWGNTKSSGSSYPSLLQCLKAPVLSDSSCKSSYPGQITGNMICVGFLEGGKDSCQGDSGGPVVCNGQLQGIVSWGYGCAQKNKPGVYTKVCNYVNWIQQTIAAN

Structure (SMILES)	cell damage seen in the micronucleus assay (slides excluded from evaluation) (HepG2)	phase I conversion, in words [1]	HepG2 cell viability [2]	glucuronidation: conversion and formation of glucuronides, in words [3]	remaining parental compound, glucuronidation (phase II) ([3]; horse, 37 °C, normalized to stability control, n.d. = not detected)	phase I conversion, in words [4]	glucuronidation: conversion and formation of glucuronides, in words [5]	remaining parental compound, glucuronidation (phase II) ([5]; human, 37 °C, normalized to stability control, n.d. = not detected)	metabolism under sulfation conditions, in words [6]	metabolism under sulfation conditions, in words [7]	inhibition at 200 µM (human factor XIa) [%]	cytotoxicity (cell viability, T/C), in words [8]	inhibition at 200 µM (human β-FXIIa) [%]	inhibition of trypsin (porcine trypsin)	inhibition of FXa (human Factor Xa)	inhibition of FXIIa (human β-FXIIa)	concentration at which precipitation in cell culture medium starts [9] [µM]	cytotoxicity (cell viability, T/C), in words [10]
CC(=O)O[C@@H]1[C@H](OC(C)=O)C[C@@]2(C)C(CC[C@@H](C)[C@]23Cc2c(O)cc(C=O)c(C=O)c2O3)C1(C)C (some centres unmarked) [Compound 1, acetoxystachybotrydial acetate]	left the cells visibly damaged	metabolized fastest	below 50%	did not at all	no 1 remaining in solution	metabolized fastest	did not at all	no 1 remaining in solution	did undergo metabolism	did undergo metabolism	–	–	–	–	–	–	–	–
CC(=O)OC1CC2(C)C(CCC(C)C23Cc2c(O)cc4c(c2O3)CN(C(Cc2c[nH]c3ccccc23)C(=O)O)C4=O)C(C)(C)C1OC(C)=O (centres unmarked) [Compound 2a, Acetoxystachybotrylactam acetate-tryptophan]	–	–	–	–	–	–	–	–	–	–	51	more toxic	63	–	–	–	–	–
CC(=O)OC1CC2(C)C(CCC(C)C23Cc2c(O)cc4c(c2O3)C(=O)N(C(Cc2c[nH]c3ccccc23)C(=O)O)C4)C(C)(C)C1OC(C)=O (centres unmarked) [Compound 2b, Acetoxystachybotrylactam acetate-tryptophan]	–	–	–	more readily converted; also recorded: more available for glucuronidation than 2a	–	–	more readily converted; also recorded: more available for glucuronidation than 2a	–	–	–	66	less cytotoxic	34	–	–	–	–	–
CC(=O)OC1CC2(C)C(CCC(C)C23Cc2c(O)cc4c(c2O3)CN(CCc2c[nH]c3ccccc23)C4=O)C(C)(C)C1OC(C)=O (centres unmarked) [Compound 3a, Acetoxystachybotrylactam acetate-tryptamine]	impaired cell viability even more	–	–	–	–	–	–	–	–	–	9	–	–	no inhibition	no inhibition	no inhibition	≥ 10	–
CC(=O)OC1CC2(C)C(CCC(C)C23Cc2c(O)cc4c(c2O3)C(=O)N(CCc2c[nH]c3ccccc23)C4)C(C)(C)C1OC(C)=O (centres unmarked) [Compound 3b, Acetoxystachybotrylactam acetate-tryptamine]	–	–	–	–	–	–	–	–	did undergo metabolism	did undergo metabolism	17	–	–	no inhibition	no inhibition	no inhibition	≥ 1	no impact on cell viability was observed
